Data published in the supplement of paper PMC12420376.

How the values were obtained:
[1] = system: OVCAR8; experiment: drug sensitivity score (DSS2) on cancer cell count; higher = more sensitive; extreme values may be limits of the assay; settings: 72 h
In short: (§1)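 Ovarian cancer cells were grown alone or in 1:1 direct co-culture with lung or skin fibroblasts. They were plated onto 384-well plates pre-spotted acoustically with 528 approved and investigational compounds at 5 concentrations, then treated for 72 h. Cells were fixed, immunostained for CK8/18 with Hoechst, and imaged at 10× (4 fields) to count cancer cells. A drug sensitivity score (DSS2) was derived in Breeze from 4-parameter logistic fits, with screen quality checked by Z'.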

[2] = system: KURAMOCHI; experiment: as above; settings: 72 h
In short: as §1

[3] = co-cultured fibroblast: BJHTERT
[4] = co-cultured fibroblast: none (monoculture)

SMILES | drug sensitivity score [1, 3] [DSS] | drug sensitivity score ([1]; co-cultured fibroblast: WI38) [DSS] | drug sensitivity score [1, 4] [DSS] | drug sensitivity score [2, 3] [DSS] | drug sensitivity score ([2]; co-cultured fibroblast: WI38) [DSS] | drug sensitivity score [2, 4] [DSS]
COc1cccc(OCCCN)c1-c1cc(Nc2cnc(C#N)cn2)n[nH]1 [Prexasertib] | 35 | 33.7 | 29.8 | 25.7 | 23.7 | 30.7
Cn1cc(CNCC2CCN(c3ncc(C(=O)NO)cn3)CC2)c2ccccc21 [Quisinostat] | 22.6 | 15.3 | 22.4 | 15 | 17 | 18.9
CC(C)(C)c1cc(NC(=O)Nc2ccc(-c3cn4c(n3)sc3cc(OCCN5CCOCC5)ccc34)cc2)no1 [Quizartinib] | 3.6 | 6.2 | 0 | 0 | 0 | 0
Nc1cc(F)ccc1NC(=O)/C=C/c1cnn(C/C=C/c2ccccc2)c1 [RGFP966] | 1.6 | 0.6 | 4.4 | 3.9 | 6 | 4
COC(=O)c1ccc([C@H]2c3[nH]c4ccccc4c3C[C@H](C(=O)OC)N2C(=O)CCl)cc1 [RSL3] | 0 | 0 | 0 | 0 | 0 | 2.5
Cc1cnc(NC(=O)Nc2cc(Br)c(C)cc2OC[C@@H]2CNCCO2)cn1 [Rabusertib] | 0.2 | 0 | 0 | 0.4 | 0 | 0
Cc1cn(-c2cc(NC(=O)c3ccc(C)c(Nc4nccc(-c5cnccn5)n4)c3)cc(C(F)(F)F)c2)cn1 [Radotinib] | 0 | 6.2 | 1.2 | 0 | 0 | 0
CC(C)(C)Cn1c(N)nc2ccc(-c3[nH]c(C(C)(C)C)nc3-c3ccc(F)cc3)nc21 [Ralimetinib] | 0 | 0 | 2.5 | 10.8 | 1.7 | 0
O=C(c1ccc(OCCN2CCCCC2)cc1)c1c(-c2ccc(O)cc2)sc2cc(O)ccc12 [Raloxifene] | 2.5 | 0 | 0 | 4 | 0 | 0
Cc1nc(=O)c2cc(CN(C)c3ccc(C(=O)N[C@@H](CCC(=O)O)C(=O)O)s3)ccc2[nH]1 [Raltitrexed] | 16.4 | 18.3 | 15.9 | 11.2 | 16.8 | 10.4
Cn1nccc1Nc1nccc(-c2ccn([C@H](CO)c3ccc(Cl)c(F)c3)c(=O)c2)n1 [Ravoxertinib] | 2.2 | 4.3 | 4.9 | 3.6 | 3.2 | 3.3
CNC(=O)c1cc(Oc2ccc(NC(=O)Nc3ccc(Cl)c(C(F)(F)F)c3)c(F)c2)ccn1 [Regorafenib] | 5.4 | 3.3 | 5.5 | 5.5 | 3.6 | 3.2
CCOC(=O)C1=CCCC[C@H]1S(=O)(=O)Nc1ccc(F)cc1Cl [Resatorvid] | 0 | 0 | 0 | 0 | 0.2 | 0
CCOCc1nc2c(N)nc3ccccc3c2n1CC(C)(C)O [Resiquimod] | 0.3 | 0 | 0 | 0 | 0 | 6.7
CN(C)Cc1ccc(S(=O)(=O)n2ccc(/C=C/C(=O)NO)c2)cc1 [Resminostat] | 18.3 | 12.8 | 15 | 11 | 10 | 10.4
CN(C)C(=O)c1cc2cnc(Nc3ccc(N4CCNCC4)cn3)nc2n1C1CCCC1 [Ribociclib] | 3.9 | 0 | 0 | 0 | 3.9 | 5.2
CO[C@H]1C[C@@H]2CC[C@@H](C)[C@@](O)(O2)C(=O)C(=O)N2CCCC[C@H]2C(=O)O[C@H]([C@H](C)C[C@@H]2CC[C@@H](OP(C)(C)=O)[C@H](OC)C2)CC(=O)[C@H](C)/C=C(\C)[C@@H](O)[C@@H](OC)C(=O)[C@H](C)C[C@H](C)/C=C/C=C/C=C/1C [Ridaforolimus] | 7.1 | 0 | 9.8 | 11.6 | 13.4 | 8.1
COc1cc(OC)c(/C=C/S(=O)(=O)Cc2ccc(OC)c(NCC(=O)O)c2)c(OC)c1 [Rigosertib] | 27.7 | 28.9 | 30.4 | 24 | 24.1 | 28.8
C[C@H]1CNCCCN1S(=O)(=O)c1cccc2cncc(F)c12 [Ripasudil] | 3 | 6.9 | 0.2 | 1.8 | 0 | 0.4
C=CC(=O)Nc1cccc(Nc2nc(Nc3ccc(N4CCN(C(C)=O)CC4)cc3OC)ncc2C(F)(F)F)c1 [Rociletinib] | 6.7 | 4.1 | 8.1 | 5.8 | 4.6 | 3.7
O=C(CCCCCCNC(=O)c1cnc(N(c2ccccc2)c2ccccc2)nc1)NO [Rocilinostat] | 10.4 | 5.2 | 18.6 | 6.7 | 6.9 | 7.1
C/C=C1\NC(=O)[C@H]2CSSCC/C=C/[C@H](CC(=O)N[C@H](C(C)C)C(=O)N2)OC(=O)[C@H](C(C)C)NC1=O [Romidepsin] | 29.2 | 26.5 | 30.4 | 28 | 30 | 32.7
Cc1nc(C(=O)NCC(=O)O)c(O)c2ccc(Oc3ccccc3)cc12 [Roxadustat] | 0 | 0 | 0 | 3 | 0 | 0
CN(C)C[C@@H]1CCn2cc(c3ccccc32)C2=C(C(=O)NC2=O)c2cn(c3ccccc23)CCO1 [Ruboxistaurin] | 5.5 | 3.8 | 6.9 | 8.7 | 6.5 | 14.9
CNCc1ccc(-c2[nH]c3cc(F)cc4c3c2CCNC4=O)cc1 [Rucaparib] | 8.5 | 3.5 | 6.5 | 3.7 | 5.3 | 14.1

SMILES | drug sensitivity score [1, 3] [DSS] | drug sensitivity score ([1]; co-cultured fibroblast: WI38) [DSS] | drug sensitivity score [1, 4] [DSS] | drug sensitivity score [2, 3] [DSS] | drug sensitivity score ([2]; co-cultured fibroblast: WI38) [DSS] | drug sensitivity score [2, 4] [DSS]
N#CC[C@H](C1CCCC1)n1cc(-c2ncnc3[nH]ccc23)cn1 [Ruxolitinib] | 1.3 | 2.7 | 2.5 | 0 | 0 | 0
CC(C)N(CCCNC(=O)Nc1ccc(C(C)(C)C)cc1)C[C@H]1O[C@@H](n2cc(Br)c3c(N)ncnc32)[C@H](O)[C@@H]1O [SGC0946] | 0 | 0 | 0 | 0.1 | 3.3 | 0
COc1ccc(CCc2nc3cc(-c4c(C)noc4C)ccc3n2C[C@H](C)N2CCOCC2)cc1Cl [SGC-CBP30] | 9.9 | 1.7 | 4.5 | 5.7 | 1.3 | 3.2
CN1CCC(CNc2ccc3ncc(-c4cccc(OC(F)(F)F)c4)n3n2)CC1 [SGI-1776] | 8.5 | 4.5 | 5.2 | 7.9 | 6.1 | 7.6
CN(CC(=O)N(Cc1ccc(C2CCCCC2)cc1)c1ccc(C(=O)O)cc1)S(=O)(=O)c1c(F)c(F)c(F)c(F)c1F [SH-4-54] | 0 | 6 | 7.3 | 8.5 | 7.8 | 12
CCc1c2c(nc3ccc(O)cc13)-c1cc3c(c(=O)n1C2)COC(=O)[C@]3(O)CC [SN-38] | 40.9 | 40.9 | 45 | 31.7 | 39.5 | 41
CC(C)(C)c1cnc(CSc2cnc(NC(=O)C3CCNCC3)s2)o1 [SNS-032] | 28.3 | 21 | 24.3 | 21.1 | 18.1 | 25.5
Cc1cc2c(C(=O)NC[C@H](C)c3ccccc3)c(O)c(O)cc2c(O)c1-c1c(C)cc2c(C(=O)NC[C@H](C)c3ccccc3)c(O)c(O)cc2c1O [Sabutoclax] | 16.2 | 14.2 | 26.7 | 3 | 4.3 | 23.7
CC[C@@H](C(=O)[C@@H](C)[C@@H](O)[C@H](C)[C@@H]1O[C@@H]([C@@H](CC)C(=O)O)CC[C@@H]1C)[C@H]1O[C@]2(C=C[C@@H](O)[C@]3(CC[C@@](C)([C@H]4CC[C@](O)(CC)[C@H](C)O4)O3)O2)[C@H](C)C[C@@H]1C [Salinomycin] | 22.1 | 12.2 | 21.1 | 23.1 | 23.6 | 28.5
CC(C)n1nc(-c2ccc3oc(N)nc3c2)c2c(N)ncnc21 [Sapanisertib] | 11 | 7.9 | 11.8 | 13.5 | 12.4 | 15.1
CNC(=O)CN1CCC(Oc2cc3c(Nc4cccc(Cl)c4F)ncnc3cc2OC)CC1 [Sapitinib] | 1.7 | 1 | 1.7 | 2.3 | 0 | 0
CN1CCN(CCOc2cc(OC3CCOCC3)c3c(Nc4c(Cl)ccc5c4OCO5)ncnc3c2)CC1 [Saracatinib] | 9.2 | 13.3 | 14.6 | 10.4 | 9.6 | 9.9
CC1=C2C[C@H]3[C@@H](CC[C@@H]4C[C@H](NS(C)(=O)=O)CC[C@@]43C)[C@@H]2CC[C@@]2(C1)O[C@@H]1C[C@H](C)CN[C@H]1[C@H]2C [Saridegib] | 0 | 0 | 0 | 3.1 | 3.9 | 4.2
O=C(/C=C\n1cnc(-c2cc(C(F)(F)F)cc(C(F)(F)F)c2)n1)NNc1cnccn1 [Selinexor] | 22.4 | 24.3 | 27.1 | 17.1 | 21.8 | 25.3
Cc1cc(F)c(C(=O)Nc2cccc(-c3nncn3C(C)C)n2)cc1-n1cnc(C2CC2)c1 [Selonsertib] | 0 | 0 | 0 | 0 | 0 | 0
Cn1cnc2c(F)c(Nc3ccc(Br)cc3Cl)c(C(=O)NOCCO)cc21 [Selumetinib] | 6.1 | 0 | 7.8 | 15.5 | 6.4 | 20.1
CN1CCN(C(=O)c2ccc3cc(CCNc4ncnc5ccc(C#N)cc45)ccc3c2)CC1 [Senexin B] | 1.1 | 0 | 0.1 | 1.1 | 1.6 | 1
COCC[n+]1c2c(n(Cc3cnccn3)c1C)C(=O)c1ccccc1C2=O [Sepantronium bromide] | 37.1 | 35.5 | 29.9 | 40.7 | 30 | 30.5
Nc1nc2cc(-c3ccc4ncc(C(=O)N5CCOCC5)n4c3)ccc2o1 [Serabelisib] | 0.8 | 0 | 0 | 3.3 | 0.4 | 3.1
O=C(O)c1ccc2c(c1)nc(Nc1cccc(Cl)c1)c1ccncc12 [Silmitasertib] | 2 | 0 | 3 | 4.1 | 3.4 | 0.8
CCC(C)(C)C(=O)O[C@H]1C[C@@H](C)C=C2C=C[C@H](C)[C@H](CC[C@@H]3C[C@@H](O)CC(=O)O3)[C@H]21 [Simvastatin] | 1.8 | 14.6 | 3.6 | 0.4 | 0 | 8.6
CO[C@H]1C[C@@H]2CC[C@@H](C)[C@@](O)(O2)C(=O)C(=O)N2CCCC[C@H]2C(=O)O[C@H]([C@H](C)C[C@@H]2CC[C@@H](O)[C@H](OC)C2)CC(=O)[C@H](C)/C=C(\C)[C@@H](O)[C@@H](OC)C(=O)[C@H](C)C[C@H](C)/C=C/C=C/C=C/1C [Sirolimus] | 4.5 | 0 | 9.2 | 4.2 | 5 | 7.1
COCCNCc1ccc(-c2cc3nccc(Oc4ccc(NC(=O)C5(C(=O)Nc6ccc(F)cc6)CC5)cc4F)c3s2)nc1 [Sitravatinib] | 0 | 1.6 | 1.8 | 3.1 | 5.8 | 0
Cc1c(C(=O)Nc2ccc(N3C[C@@H](C)O[C@@H](C)C3)nc2)cccc1-c1ccc(OC(F)(F)F)cc1 [Sonidegib] | 0.6 | 0 | 0.6 | 0 | 0 | 0
